Source: patent US12312332B2 (Merck Sharp & Dohme LLC., priority 2019, dated 2025)

Target: T1, human OX2R (Homo sapiens, UniProt O43614)
T1 construct: expressed in transfected cells; host or cells: Chinese hamster ovary (CHO) cells, kept under G418 selection
T1 sequence (O43614 1-444): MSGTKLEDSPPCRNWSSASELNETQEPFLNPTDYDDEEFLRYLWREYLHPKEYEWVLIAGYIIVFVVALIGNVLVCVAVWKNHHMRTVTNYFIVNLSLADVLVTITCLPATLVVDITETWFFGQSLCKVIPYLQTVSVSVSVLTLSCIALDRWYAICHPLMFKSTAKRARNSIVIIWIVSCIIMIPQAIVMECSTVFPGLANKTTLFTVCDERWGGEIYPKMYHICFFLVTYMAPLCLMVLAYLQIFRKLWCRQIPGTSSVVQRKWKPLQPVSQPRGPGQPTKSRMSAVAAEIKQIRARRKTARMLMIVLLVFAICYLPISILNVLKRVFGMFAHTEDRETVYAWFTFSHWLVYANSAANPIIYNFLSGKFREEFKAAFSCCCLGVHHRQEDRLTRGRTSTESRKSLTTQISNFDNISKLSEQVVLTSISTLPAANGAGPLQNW
Assay: IPOne (IP-One) orexin receptor agonist assay in CHO cells expressing human OX2R
Assay type: cell-based
Details: for EC50: CHO cells expressing human OX2R, IP-One detection, 2 hours incubation, four parameter logistic fit, read-out: OX2R Potency, EC50; for % max agonist effect (Emax): human OX2R, percentage of sample raw value/mean max effect (reference compound at 1 uM with 100% activity)
Text: The utility of the compounds in accordance with the present invention as orexin receptor OX1R and/or OX2R agonists may be readily determined without undue experimentation by methodology well known in the art. Both the OX1R and/or OX2R G-coupled protein receptors (GPCRs) couple through the Gaq signaling pathway, which ultimately promotes calcium mobilization via inositol triphosphate (IP3) production. […] The utility of the compounds in accordance with the present invention as orexin receptor OX1R and/or OX2R agonists may be determined utilizing this assay.
In a typical experiment, the OX1 and OX2 receptor agonist activity is determined in accordance with the following general experimental method. Chinese hamster ovary (CHO) cells expressing human OX1R and/or the human OX2R were grown in Iscove's modified DMEM containing glutaMAX™, 1% G418, 100 U/mL penicillin, 100 μg/mL streptomycin and 10% heat-inactivated qualified fetal bovine serum (FBS). […] During this incubation, IP-one detection reagents were prepared (38:1:1 lysis buffer:D2:AB-cryptate reagents).
For each compound, data were fit to a four parameter logistic fit (ActivityBase software) and the EC50 was reported as the inflection point of the resulting curve. Percent effect for each test compound was determined as the percentage of sample raw value/mean max effect, where the mean max effect was derived from the mean raw value of 32 control wells per assay plate (using Orexin A (cat #003-30) at 1 μM for human OX1R and a reference compound at 1 uM with 100% activity previously established by comparison to Orexin A for human OX2R). The intrinsic orexin receptor agonist activity of a compound which may be used in the present invention may be determined by these assays.

Structure (SMILES)	EC50	% max agonist effect (Emax)
Cc1ncc(N2CC[C@H](NS(C)(=O)=O)[C@@H]2CO[C@H]2CC[C@@H](c3ccccc3)CC2)s1 (relative stereo) [Example 9, N-((CIS)-1-(2-methylthiazol-5-yl)-2-((((CIS)-4-phenylcyclohexyl)oxy)methyl)pyrrolidin-3-yl)methanesulfonamide]	1900 nM	92.1%
CS(=O)(=O)N[C@H]1CCN(c2ccc(C(F)(F)F)cn2)[C@H]1CO[C@H]1CC[C@@H](c2ccccc2)CC1 [Example 130, N-((2R,3S)-2-((((CIS)-4-phenylcyclohexyl)oxy)methyl)-1-(5-(trifluoromethyl)pyridin-2-yl)pyrrolidin-3-yl)methanesulfonamide]	4000 nM	70.8%
COc1ccc(N2CC[C@H](NS(C)(=O)=O)[C@@H]2CO[C@H]2CC[C@@H](c3ccccc3)CC2)cn1 [Example 53, N-((2R,3S)-1-(6-methoxypyridin-3-yl)-2-((((CIS)-4-phenylcyclohexyl)oxy)methyl)pyrrolidin-3-yl)methanesulfonamide]	223 nM	100.6%
CS(=O)(=O)N[C@H]1CCN(c2ncccc2F)[C@H]1CO[C@H]1CC[C@@H](c2ccccc2)CC1 [Example 131, N-((2R,3S)-1-(3-fluoropyridin-2-yl)-2-((((CIS)-4-phenylcyclohexyl)oxy)methyl)pyrrolidin-3-yl)methanesulfonamide]	736 nM	98.8%
CS(=O)(=O)N[C@H]1CCN(c2cnc3oncc3c2)[C@H]1CO[C@H]1CC[C@@H](c2ccccc2)CC1 [Example 90, N-((2R,3S)-1-(isoxazolo[5,4-b]pyridin-5-yl)-2-((((CIS)-4-phenylcyclohexyl)oxy)methyl)pyrrolidin-3-yl)methanesulfonamide]	930 nM	87.6%
COc1cccc(N2CC[C@H](NS(C)(=O)=O)[C@@H]2CO[C@H]2CC[C@@H](c3ccccc3)CC2)c1 [Example 146, N-((2R,3S)-1-(3-methoxyphenyl)-2-((((CIS)-4-phenylcyclohexyl)oxy)methyl)pyrrolidin-3-yl)methanesulfonamide]	1830 nM	84.6%
Cc1nnc(N2CC[C@H](NS(C)(=O)=O)[C@@H]2CO[C@H]2CC[C@@H](c3ccccc3)CC2)o1 [Example 37, N-((2R,3 S)-1-(5-methyl-1,3,4-oxadiazol-2-yl)-2-((((CIS)-4-phenylcyclohexyl)oxy)methyl)pyrrolidin-3-yl)methanesulfonamide]	670 nM	101.5%
CS(=O)(=O)N[C@H]1CCN(c2cncnc2)[C@H]1CO[C@H]1CC[C@@H](c2ccccc2)CC1 [Example 42, N-((2R,3S)-2-((((CIS)-4-phenylcyclohexyl)oxy)methyl)-1-(pyrimidin-5-yl)pyrrolidin-3-yl)methanesulfonamide]	134 nM	100.9%
CS(=O)(=O)N[C@H]1CCN(c2ccncc2CO)[C@H]1CO[C@H]1CC[C@@H](c2ccccc2)CC1 [Example 56, N-((2R,3S)-1-(3-(hydroxymethyl)pyridin-4-yl)-2-((((CIS)-4-phenylcyclohexyl)oxy)methyl)pyrrolidin-3-yl)methanesulfonamide]	> 10000 nM	61.6%
Cc1cc(N2CC[C@H](NS(C)(=O)=O)[C@@H]2CO[C@H]2CC[C@@H](c3ccccc3)CC2)cnc1CO [Example 45, N-((2R,3S)-1-(6-(hydroxymethyl)-5-methylpyridin-3-yl)-2-((((CIS)-4-phenylcyclohexyl)oxy)methyl)pyrrolidin-3-yl)methanesulfonamide]	1410 nM	97.2%
COc1ccc(N2CC[C@H](NS(C)(=O)=O)[C@@H]2CO[C@H]2CC[C@@H](c3ccccc3)CC2)cc1 (relative stereo) [Example 6, N-((CIS)-1-(4-methoxyphenyl)-2-((((CIS)-4-phenylcyclohexyl)oxy)methyl)pyrrolidin-3-yl)methanesulfonamide]	9220 nM	25.1%
CS(=O)(=O)N[C@H]1CCN(c2ncccc2O)[C@H]1CO[C@H]1CC[C@@H](c2ccccc2)CC1 [Example 135, N-((2R,3S)-1-(3-hydroxypyridin-2-yl)-2-((((CIS)-4-phenylcyclohexyl)oxy)methyl)pyrrolidin-3-yl)methanesulfonamide]	–	101.1%
CS(=O)(=O)N[C@H]1CCN(c2ccnc(CO)c2)[C@H]1CO[C@H]1CC[C@@H](c2ccccc2)CC1 [Example 43, N-((2R,3S)-1-(2-(hydroxymethyl)pyridin-4-yl)-2-((((CIS)-4-phenylcyclohexyl)oxy)methyl)pyrrolidin-3-yl)methanesulfonamide]	3540 nM	90.4%
CS(=O)(=O)N[C@H]1CCN(c2cnc3occc3c2)[C@H]1CO[C@H]1CC[C@@H](c2ccccc2)CC1 [Example 92, N-((2R,3S)-1-(furo[2,3-b]pyridin-5-yl)-2-((((CIS)-4-phenylcyclohexyl)oxy)methyl)pyrrolidin-3-yl)methanesulfonamide]	326 nM	100.2%

Continued, values first:

EC50	% max agonist effect (Emax)	Structure (SMILES)
0.25 nM	100.2%	C[C@@H]1C[C@H](NS(=O)(=O)N(C)C)[C@H](CO[C@H]2CC[C@@H](c3cccc(F)c3)CC2)N1c1cc(O)ccn1 [Example 157, N′-((2R,3S,5R)-2-((((CIS)-4-(3-fluorophenyl)cyclohexyl)oxy)methyl)-1-(4-hydroxypyridin-2-yl)-5-methylpyrrolidin-3-yl)-N,N-dimethyl-sulfamide]
23.8 nM	101.1%	CS(=O)(=O)N[C@H]1CCN(c2ccc(CO)nc2)[C@H]1CO[C@H]1CC[C@@H](c2ccccc2)CC1 [Example 71, N-((2R,3S)-1-(6-(hydroxymethyl)pyridin-3-yl)-2-((((CIS)-4-phenylcyclohexyl)oxy)methyl)pyrrolidin-3-yl)methanesulfonamide]
52.4 nM	102.3%	Cn1ccc(=O)cc1N1CC[C@H](NS(C)(=O)=O)[C@@H]1CO[C@H]1CC[C@@H](c2ccccc2)CC1 [Example 87, N-((2R,3S)-1-(1-methyl-4-oxo-1,4-dihydropyridin-2-yl)-2-((((CIS)-4-phenylcyclohexyl)oxy)methyl)pyrrolidin-3-yl)methanesulfonamide]
0.27 nM	101.2%	CS(=O)(=O)N[C@H]1CCN(c2cc(O)c(F)cn2)[C@H]1CO[C@H]1CC[C@@H](c2cccc(F)c2)CC1 [Example 99, N-((2R,3S)-1-(5-fluoro-4-hydroxypyridin-2-yl)-2-((((CIS)-4-(3-fluorophenyl)cyclohexyl)oxy)methyl)pyrrolidin-3-yl)methanesulfonamide]
1.2 nM	99.9%	CS(=O)(=O)N[C@H]1CCN(c2nccc(O)c2F)[C@H]1CO[C@H]1CC[C@@H](c2ccccc2)CC1 [Example 72, N-((2R,3S)-1-(3-fluoro-4-hydroxypyridin-2-yl)-2-((((CIS)-4-phenylcyclohexyl)oxy)methyl)pyrrolidin-3-yl)methanesulfonamide]
105 nM	99.7%	COc1ccnc(N2CC[C@H](NS(C)(=O)=O)[C@@H]2CO[C@H]2CC[C@@H](c3ccccc3)CC2)c1 [Example 73, N-((2R,3S)-1-(4-methoxypyridin-2-yl)-2-((((CIS)-4-phenylcyclohexyl)oxy)methyl)pyrrolidin-3-yl)methanesulfonamide]
1.7 nM	102.4%	CS(=O)(=O)N[C@H]1CCN(c2ncc(Cl)c(O)c2F)[C@H]1CO[C@H]1CC[C@@H](c2ccccc2)CC1 [Example 114, N-((2R,3S)-1-(5-chloro-3-fluoro-4-hydroxypyridin-2-yl)-2-((((CIS)-4-phenylcyclohexyl)oxy)methyl)pyrrolidin-3-yl)methanesulfonamide]
17.9 nM	102%	CS(=O)(=O)N[C@H]1CCN(c2cscn2)[C@H]1CO[C@H]1CC[C@@H](c2ccccc2)CC1 [Example 110, N-((2R,3S)-2-((((CIS)-4-phenylcyclohexyl)oxy)methyl)-1-(thiazol-4-yl)pyrrolidin-3-yl)methanesulfonamide]
